According to paper PMC12441861, “Next-Generation Lipid Prodrugs Orally Deliver Tenofovir via Enhanced Chylomicron Incorporation” (ACS Pharmacology & Translational Science, 2025):
Like-named read-outs stand apart in the source and are kept apart here. Values belong to the molecule of their own block, whether it stands above or below them.

Assays:
Cytotoxicity, MTT assay = conditions: human, TZM-bl cells
[1] = Metabolic stability in human liver microsomes; format: in vitro ADME; conditions: pH 7.4, read-out: Metabolic Stability HLM t1/2
Procedure: Assays employed human liver microsomes (HLMs, 20 mg/mL) from Xenotech. A 10 mM NADPH stock was prepared in deionized H2O, and test compounds were dissolved in 100% MeOH to a final concentration of 10 mM. The stock solutions were diluted to 500 μM in 100 mM potassium phosphate buffer (pH 7.4), keeping the final MeOH concentration below 0.2%. Reaction mixtures were prepared by combining 928 μL phosphate buffer, 55 μL liver microsomes, and the test compound solution to a final concentration of 3 μM. Verapamil was used as a positive control. The reactions were initiated with the addition of 110 μL of 10 mM NADPH. Aliquots were taken in duplicate at 0, 5, 10, 15, and 30 min, quenched with 100 μL of cold MeOH containing 2 μM internal standard (d 5-7-ethoxy coumarin), and centrifuged at 12,000 RCF for 5 min. The supernatants were then transferred to LC-MS vials for analysis. The average of each duplicate was normalized to the 0 min time point, representing 100% remaining (0% metabolism).

[2] = system: Caco-2 cell total membrane; test: Drug in Caco-2 total membrane fraction versus CM fraction; format: in vitro ADME, human
From the text: Having completed this initial prodrug screening, we next sought to evaluate their ability to incorporate into CMs in vitro. For a lysoglycerolipid prodrug (e.g., TXL and BCV) to be packaged into CMs, it must first be transported into intestinal enterocytes, like Caco-2 cells, by intercalating into the outer leaflet of the plasma membrane before flipping (either actively or passively) to the inner leaflet. Subsequent membrane desorption facilitates intraenterocyte diffusion to the ER and Golgi, where CM are produced. Accordingly, we hypothesized that, even though high lipophilicity should drive prodrug association with CMs, these low hydrophilicity compounds first need to get through the plasma membrane, which could create a kinetic barrier to CM incorporation. […] Proceeding with the CM production and isolation assay as described (Scheme ), cells were harvested in parallel, and the total membrane fraction was separated from other cellular components via centrifugation through a specialized filter provided with the Minute Plasma Membrane Protein Isolation and Cell Fractionation Kit from Invent Biotechnologies (cat No. SM-005). […]
Total membrane fractionation was performed using a Minute Plasma Membrane Protein Isolation and Cell Fractionation Kit from Invent Biotechnologies (cat No. SM-005). […] The clear supernatant was collected and analyzed using LC-MS/MS.

[3] = Cytotoxicity, ATP luminescence (Cell Titer Glow) assay; conditions: human, TZM-bl cells
[4] = Mouse oral PK and tissue distribution, fed state; format: in vivo; conditions: single oral dose 10 mg/kg, fed mice
From the text: Given the increased packaging of the CF3-modified lipids into CMs compared to their ω-unmodified congeners, we selected these compounds for PK studies in mice. We hypothesized that, following oral administration, our modified prodrugs would favor CM-mediated transport into the lymphatics over absorption into mesenteric veins feeding into the portal system. By circumventing direct transport to the liver, these prodrugs are expected to achieve elevated levels in the lung relative to the liver, as lymph empties into the jugular venous angle and mixes with blood en route to the pulmonary arteries (Figure ). For all mouse PK experiments, prodrugs were formulated in a 9:1 mixture of olive oil and ethanol, then administered to male C57BL/6 mice via oral gavage at a dose of 10 mg/kg. Organs (liver, lung, and plasma) were harvested at 1, 2, 4, 8, and 18 h postdose, per the protocol described by our groups previously. Concentrations of prodrug were quantified using LC-MS/MS after tissue homogenization, extraction, and sample preparation.
The compounds TXL, 15a, 15b, 21a, 21b, and a vehicle control were prepared at a concentration of 1 mg/mL in a 90:10 solution of olive oil (Sigma-Aldrich, cat. No. O1514) and 190-proof ethanol. The dosing for each mouse was calculated based on individual body weights to achieve a final dose of 10 mg/kg. For example, a 20 g mouse would receive 200 μL of the 1 mg/mL drug formulation, while a 25 g mouse would receive 250 μL.
In accordance with the American Chemical Society Guidelines to Publication of Chemical Research, we affirm the use of standard ethical practices when housing and handling research animals, as ensured by the Emory University’s Institutional Animal Care and Use Committee (IACUC) and the Division of Animal Resources (DAR) through a rigorous protocol review, amendment, and approval process. A total of 220 C57BL6/J male mice (aged 11–12 weeks, weight, 22–30 g) were used for these studies. Each mouse was weighed, recorded, and ear-clipped for identification. The dosing for each mouse was calculated based on individual body weights to achieve a final dose of 10 mg/kg. Animals were anesthetized using isoflurane gas before receiving a single dose of drug prepared as described above using a 22-gauge gavage needle attached to a calibrated syringe.
Time points for tissue collection were 1, 2, 4, 8, and 18 h for unfasted mice, and 1, 2, 4, 8, and 24 h for fasted mice. At each time point, the mice (n = 4 per compound per time point) were anesthetized using isoflurane and subjected to cardiac puncture for blood collection into EDTA-coated tubes. The collected blood samples were immediately placed on ice before the mice were humanely euthanized via cervical dislocation. Brain, liver, lungs, and kidneys were harvested, rinsed in PBS, and placed in prelabeled tubes. Tissues were flash-frozen in liquid nitrogen then transferred to dry ice for storage.
Blood samples were collected into EDTA-coated tubes and centrifuged at 400 RCF for 10 min at 4 °C to separate plasma from the cellular components. The plasma layer was carefully pipetted off and stored in separate prelabeled and preweighed tubes. All tissues were stored at −80 °C until time for processing.
Tissues were weighed (∼50 mg) into homogenization tubes and ACN containing a 10 μM ITSD was added to achieve a final solvent-to-tissue ratio of 4:1. Homogenization beads were added, and the tissues were processed (Biotage Lysera, part no. 19–060) using two 20 s pulses with a 10 s interval period. Homogenate was centrifuged at maximum speed for 1 h, supernatant collected and analyzed via LC-MS using the method described previously. For plasma samples, a 50 μL aliquot was added 200 μL of ACN containing ITSD. The mixture was vortexed thoroughly and then centrifuged to precipitate proteins, with the supernatant collected and analyzed via LC-MS. […]

[5] = Metabolic stability in mouse liver microsomes; format: in vitro ADME; conditions: pH 7.4, read-out: Metabolic Stability MLM t1/2
[6] = design: method as in Hostetler 2007; conditions: single oral dose, prodrug in lung and liver over 72 h; ref Hostetler 2007; cited from earlier work
[7] = parent Cidofovir; ref Hostetler 2007; cited from earlier work
[8] = ref Hostetler 2007; cited from earlier work

half-life at 3 µM [1]: > 2 h | drug in membrane fraction ([2]; 20 h): undetectable
Structure (SMILES): CCCCCCCCCCCCCCCCCCOC[C@H](COP(=O)(O)CO[C@H](C)Cn1cnc2c(N)ncnc21)OCc1ccccc1 [8d, Ammonium[(1R)-2-(6-aminopurin-9-yl)-1-methyl-ethoxy]methyl-[(2R)-2-benzyloxy-3-octadecoxy-propoxy]phosphinate]
CC50 at 48 h (Cytotoxicity, MTT assay): > 10 µM | membrane concentration compared with TXL ([2]; 8 h, n = 3): significantly greater concentrations in the membrane than TXL

half-life at 3 µM [1]: > 2 h | Tmax ([4]; male, C57BL/6, mouse, liver, read-out: Liver Tmax): 4 h | Tmax ([4]; male, C57BL/6, mouse, lung, read-out: Lung Tmax): 8 h | Cmax ([4]; male, C57BL/6, mouse, plasma): 0.102 µg/mL | AUC(0-t) ([4]; male, C57BL/6, mouse, plasma, read-out: Plasma AUC0-18h): 1.01 µg·h/mL | Tmax ([4]; male, C57BL/6, mouse, plasma, read-out: Plasma Tmax): 4 h | Liver AUC0-18h [4]: 133,000 h*ng/g | Liver Cmax [4]: 13,400 ng/g | Lung AUC0-18h [4]: 7,120 h*ng/g | Lung Cmax [4]: 585 ng/g | half-life at 3 µM [5]: 1.52 h
Structure (SMILES): C[C@H](Cn1cnc2c(N)ncnc21)OCP(=O)(O)OCCCOCCCCCCCCCCCCCCCCCC(F)(F)F [15b, Ammonium[(1R)-2-(6-aminopurin-9-yl)-1-methyl-ethoxy]methyl-[3-(18,18,18-trifluorooctadecoxy)propoxy]phosphinate]
CC50 at 48 h [3]: > 1 µM

Structure (SMILES): CCCCCCCCCCCCCCCCOCCCOP(=O)(O)CO[C@H](CO)Cn1ccc(N)nc1=O [BCV, brincidofovir]
lung/liver AUC0–72h [6]: 0.04

Structure (SMILES): CCCCCCCCCCCCCCCCCCOCC(COP(=O)(O)COC(CO)Cn1ccc(N)nc1=O)OCc1ccccc1 (centres unmarked) [ODBG-CDV, 1-O-octadecyl-2-O-benzyl-sn-glycero-3-cidofovir]
Δ Oral Availability (% versus Parent) [7]: 32% | increase in lung delivery compared to liver [8]: 13-fold increase in lung delivery compared to liver | lung/liver AUC0–72h [6]: 2.05
